{"source": "paper PMC12412615", "about": "“Tailored SirReal-type inhibitors enhance SIRT2 inhibition through ligand stabilization and disruption of NAD^+ co-factor binding” (RSC Medicinal Chemistry, 2025)", "key": {"human SIRT5": {"molecular_target": "T1, human SIRT5 (Homo sapiens, UniProt Q9NXA8)", "T1 construct": "purchased Reaction Biology Corporation (Malvern, USA), contract assay", "T1 sequence (Q9NXA8 37-310)": "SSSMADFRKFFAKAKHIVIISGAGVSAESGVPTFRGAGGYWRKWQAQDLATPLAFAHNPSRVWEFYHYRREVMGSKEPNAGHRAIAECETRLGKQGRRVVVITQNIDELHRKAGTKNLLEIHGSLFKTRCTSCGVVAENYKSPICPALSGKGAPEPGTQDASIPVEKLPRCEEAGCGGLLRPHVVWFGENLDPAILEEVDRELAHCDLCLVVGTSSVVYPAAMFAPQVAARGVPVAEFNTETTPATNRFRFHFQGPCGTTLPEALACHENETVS", "experiment": "Fluorescence-based sirtuin subtype selectivity assay, SIRT5, single dose 50 μM", "type": "biochemical", "conditions": "50 μM compound; mean, n = 2", "experimental": "IC50 values against SIRT2 are given as mean with standard deviations (n = 3). Inhibition percentages at 50 μM for SIRT1, 3 and 5 are given as mean without standard deviations (n = 2)\nThe determination of subtype selectivity against SIRT1, 3 and 5 was performed by measuring the residual enzyme activity after treatment with the corresponding inhibitor at a fixed concentration of 50 μM and subsequent calculation of the percentage inhibition.\nThe determination of inhibitory activity on the corresponding sirtuin enzymes was carried out based on a fluorescence-based assay commissioned by Reaction Biology Corporation (Malvern, USA) following an internal experimental protocol. Test substances were prepared in DMSO, delivered into the respective enzyme mixture (prepared with reaction buffer: Tris-HCl, pH = 8) and incubated for 10 minutes at 30 °C. Subsequently the substrate mixture (NAD^+ and a 7-amino-4-methylcoumarin-based fluorogenic peptide substrate) was added to initiate the deacetylation reaction. After 2 hours incubation at 30 °C, 2 mM nicotinamide (universal sirtuin inhibitor, to stop the reaction) and protease-based developer (to generate fluorescence by the cleavage of 7-amino-4-methylcoumarin) was added. At 30 °C 1 hour later, the respective fluorescence was measured (extinction/emission = 360 nm/460 nm). The inhibitory effect of the test compounds is indirectly proportional to the amount of converted fluorescent substrate standardized as 100% activity of the control without inhibitor. The test substances were tested in 10-dose IC50 triplicate mode, with 3-fold serial dilution starting at 50 μM final reaction concentration and if necessary, starting at 100 μM. For each serially diluted replicate of the triplicate, an IC50 value was determined by sigmoidal curve fitting, resulting in three IC50 values, from which the mean and corresponding standard deviation were subsequently calculated. Data processing was performed based on Prism 8.0.2 software (GraphPad Software, Boston, USA). Subtype selectivity on SIRT1, SIRT3 and SIRT5 was evaluated in a single dose duplicate mode at 50 μM final test compound concentration according to previous outlined internal protocol of Reaction Biology Corporation by determining the enzyme activity of the respective sirtuins in % (no inhibitor control as 100% activity)."}, "[1]": {"molecular_target": "T2, NanoLuc-SIRT2 fusion construct (Homo sapiens, UniProt Q8IXJ6)", "T2 construct": "HEK293T cells expressing the NanoLuc-tagged SIRT2(50-356) fusion protein were used; expressed in transfected cells; transient transfection for SH10", "T2 sequence (Q8IXJ6 50-356)": "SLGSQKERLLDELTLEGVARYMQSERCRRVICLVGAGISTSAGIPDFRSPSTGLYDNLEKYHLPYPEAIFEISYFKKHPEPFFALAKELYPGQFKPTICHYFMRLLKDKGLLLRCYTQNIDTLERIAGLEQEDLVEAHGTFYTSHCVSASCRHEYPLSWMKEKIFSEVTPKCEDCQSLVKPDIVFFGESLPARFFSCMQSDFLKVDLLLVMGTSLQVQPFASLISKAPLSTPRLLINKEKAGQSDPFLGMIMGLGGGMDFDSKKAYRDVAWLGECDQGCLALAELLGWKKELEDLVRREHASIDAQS", "experiment": "NanoBRET cellular target engagement assay in HEK293T cells", "type": "cell-based", "conditions": "stable HEK293T cell line expressing NanoLuc-SIRT2; 2 μM tracer; 2 hours at 37 °C; read-out: NanoBRET EC50 (cellular SIRT2 target engagement)", "description": "For the assay, cells were trypsinized, resuspended in Opti-MEM® reduced serum medium, and adjusted to a concentration of 2 × 10^5 cells per mL. […] Serially diluted inhibitor and tracer were added to the cell suspension, and 100 μL were seeded into 96-well white, sterile, nonbinding surface plates. […] For BRET measurements, NanoBRET NanoGlo Substrate (Promega cat. #N1571) was added to the wells according to the manufacturer's protocol. […] The BRET ratio was calculated as the ratio of acceptor to donor signal, and data were normalized to vehicle-treated controls. Apparent intracellular binding affinities (EC50 values) were determined by fitting dose–response curves using nonlinear regression analysis in GraphPad Prism."}}, "data": [{"smiles": "Cc1cc(C)nc(SCC(=O)Nc2cccc(COc3ccc(NC(=O)c4cnn(C)c4)c(Cl)c3)c2)n1", "note": "[Compound 29, N-(2-Chloro-4-((3-(2-((4,6-dimethylpyrimidin-2-yl)thio)acetamido)benzyl)oxy)phenyl)-1-methyl-1H-pyrazole-4-carboxamide]", "values": [{"measurement": "inhibition at 50 µM", "setting": "human SIRT5", "result": 7, "unit": "%"}, {"measurement": "EC50", "setting": "[1]", "result": 15, "unit": "nM"}]}]}
